Among the data in patent publication US8232401B2 (Japan Tobacco Inc., priority 2002, dated 2012) are IC50 values, retold here.

Structures are written as SMILES.

In the assay the target is T1, HIV integrase (Human immunodeficiency virus type 1 group M subtype B, UniProt P12497, F1332H).
T1 construct: HIV integrase full length gene; made in house; host or cells: Escherichia coli BL21(DE3)
In words: Determination of enzyme (HIV integrase) inhibitory activity (strand transfer, microtiter plate, absorbance at 450 nm). The assay is classed as biochemical, HIV (Human Immunodeficiency Virus (type 1)). The settings on record: recombinant HIV integrase (F185H) expressed in E. coli; donor DNA on streptavidin plate, digoxigenin target DNA; 37° C.
In general, IC50 refers to the midpoint of a concentration-inhibition curve. Consider `CCOc1cc(Cc2cccc(Cl)c2F)cc2c(=O)c(C(=O)O)cn([C@H](CO)C3CCCCC3)c12` [Example 4-41, (S)-6-(3-Chloro-2-fluorobenzyl)-1-(1-cyclohexyl-2-hydroxyethyl)-8-ethoxy-4-oxo-1,4-dihydroquinoline-3-carboxylic acid], for which the IC50 turned out to be 2.3 nM.
As for `N#Cc1cc2c(cc1Cc1cccc(Cl)c1Cl)c(=O)c(C(=O)O)cn2CCO` [Example 3-27, 7-Cyano-6-(2,3-dichlorobenzyl)-1-(2-hydroxyethyl)-4-oxo-1,4-dihydroquinoline-3-carboxylic acid], the figure is 75 nM; as for `CCOc1cc2c(cc1Cc1cccc(Cl)c1Cl)c(=O)c(C(=O)O)cn2CCO` [Example 3-20, 6-(2,3-Dichlorobenzyl)-7-ethoxy-1-(2-hydroxyethyl)-4-oxo-1,4-dihydroquinoline-3-carboxylic acid], 10 nM.
As for `O=C(O)c1cn(CCO)c2ccc(Cc3cccc(F)c3Cl)cc2c1=O` [Example 1-66, 6-(2-Chloro-3-fluorobenzyl)-1-(2-hydroxyethyl)-4-oxo-1,4-dihydroquinoline-3-carboxylic acid], the figure is 49 nM.
As for `O=C(O)c1cn(CC2CCCCC2)c2ccc(Cc3cccc(Cl)c3Cl)cc2c1=O` [Example 1-42, 1-Cyclohexylmethyl-6-(2,3-dichlorobenzyl)-4-oxo-1,4-dihydroquinoline-3-carboxylic acid], the figure is 130 nM; as for `O=C(O)c1cn(CCO)c2ccc(Cc3c(F)ccc(F)c3Cl)cc2c1=O` [Example 1-73, 6-(2-Chloro-3,6-difluorobenzyl)-1-(2-hydroxyethyl)-4-oxo-1,4-dihydroquinoline-3-carboxylic acid], 31 nM.
As to `O=C(O)c1cn(CCO)c2cc(F)c(Cc3cccc(Cl)c3Cl)cc2c1=O` [Example 4-9, 6-(2,3-Dichlorobenzyl)-7-fluoro-1-(2-hydroxyethyl)-4-oxo-1,4-dihydroquinoline-3-carboxylic acid], the IC50 was 21 nM.
Turning to `O=C(O)c1cn(CCCCO)c2ccc(Cc3cccc(Cl)c3Cl)cc2c1=O` [Example 1-21, 6-(2,3-Dichlorobenzyl)-1-(4-hydroxybutyl)-4-oxo-1,4-dihydroquinoline-3-carboxylic acid], the concentration for half-maximal inhibition (IC50) worked out at 74 nM.
Then `CC(C)Oc1cc2c(cc1Cc1cccc(Cl)c1F)c(=O)c(C(=O)O)cn2[C@H](CO)C1CCCCC1` [Example 4-40, (S)-6-(3-Chloro-2-fluorobenzyl)-1-(1-cyclohexyl-2-hydroxyethyl)-7-isopropyloxy-4-oxo-1,4-dihydroquinoline-3-carboxylic acid], with 4.3 nM; and `CCOc1cc(Cc2cccc(Cl)c2F)cc2c(=O)c(C(=O)O)cn([C@@H](C)CO)c12` [Example 3-67, (S)-6-(3-Chloro-2-fluorobenzyl)-8-ethoxy-1-(2-hydroxy-1-methylethyl)-4-oxo-1,4-dihydroquinoline-3-carboxylic acid], with 6.4 nM.
For `O=C(O)c1cn(CCO)c2ccc(Cc3ccccc3)cc2c1=O` [Example 1-78], the IC50 is 590 nM.
For `O=C(O)c1cn(CCO)c2ccc(Cc3ccccc3Cl)cc2c1=O` [Example 1-87, 6-(2-Chlorobenzyl)-1-(2-hydroxyethyl)-4-oxo-1,4-dihydroquinoline-3-carboxylic acid], the IC50 was 140 nM.
Then `O=C(O)c1cn(CCO)c2cc(Cl)c(Cc3cccc(Cl)c3Cl)cc2c1=O` [Example 3-21, 7-Chloro-6-(2,3-dichlorobenzyl)-1-(2-hydroxyethyl)-4-oxo-1,4-dihydroquinoline-3-carboxylic acid], with 30 nM; and `O=C(O)c1cn(CCO)c2ccc(Cc3cccc(Cl)c3Cl)c(O)c2c1=O` [Example 3-5, 6-(2,3-Dichlorobenzyl)-5-hydroxy-1-(2-hydroxyethyl)-4-oxo-1,4-dihydroquinoline-3-carboxylic acid], with 24 nM; and `CC(C)Oc1cc2c(cc1Cc1cccc(Cl)c1F)c(=O)c(C(=O)O)cn2CCO` [Example 3-53, 6-(3-Chloro-2-fluorobenzyl)-1-(2-hydroxyethyl)-7-isopropyloxy-4-oxo-1,4-dihydroquinoline-3-carboxylic acid], with 7.9 nM.
